# Several values for one entry are separate records, joined by “and”; a condition that tells them apart may be missing. Equal entries are not always repeated. Where two headings read alike, the source gives them in different places.
# Legend:
# [1] = test system: Corn; details: MON-12000 + OP insecticides; Examples 20-23
# [2] = test system: Shattercane (SHCA); type: in vivo
# [3] = test system: Giant foxtail (GIFT); experiment: whole plant or invertebrate; type: in vivo; details: in vivo
# [4] = test system: Velvetleaf (VELE); type: in vivo, Abutilon theophrasti
# [5] = test system: Corn
# [6] = test system: Corn; experiment: Greenhouse test Procedure VII: biocide and antidote in furrow, herbicide POE (Examples 39-42, 48-50, 56-58; Tables 38-41, 47-49, 55-57); type: in vivo; details: for % Inhibition Corn: C (COUNTER) + antidote in furrow
# Text: This procedure describes interaction among herbicide, biocide and antidote when the biocide and the antidote is applied to a soil furrow containing crop seed before emergence of the crop and the herbicide is applied after emergence of the crop and weeds. The soil and planting depth was described in Procedure IV. The containers for comparison, the biocide and antidote applications to soil furrows were described in Procedure VI. In this procedure, the seed beds of the first, second, third and fourth containers are covered by soil layers not treated with herbicide. The containers were then placed on a bench in a greenhouse and subirrigated as required for the duration of the test. The herbicide, dispersed or dissolved in water containing 0.25% v/v nonionic surfactant (X-77) was applied by a track sprayer (187 L/ha) to the emerged plants of the second, third and fourth containers about five days after planting. All treatments were run in duplicate. Plant response was observed according to Procedure IV. Variations in this procedure will be noted in the examples.
# In this example, tests were conducted according to Procedure VII for the POE application of the herbicides following in-furrow application of COUNTER® 15G insecticide (BIOCIDE No. 1) and the antidote on the pre-planted test seeds. In this test, the herbicides were Nos. 1 (MON-12000), 10 (ALLY®) and #4 (HARMONY®) and the Antidote Nos. 1, 7, 12 and 33.
# These in-furrow treatments comprised a 50-50 mix of blended granules of COUNTER with and without 5G granular antidotes at 7.4 + 7.4 mg/cm or 1.1 + 0.37 mg active ingredient (a.i.)/cm. The in-furrow initiation of the test was followed five (5) days later with POE application of the herbicides; observations were made eight (8) days later.
# In another test, conducted simultaneously with that in Example 39, Herbicide Nos. 5 (chlorimuron ethyl, active ingredient in CLASSIC® herbicide), 7 (nicosulfuron, active ingredient in ACCENT® herbicide) and 15 (tribenuron methyl, active ingredient in EXPRESS® herbicide) were substituted as test herbicides.
# In this example, using the same procedure as above, the following imidazolinone herbicides were used with the same insecticide/biocide and antidotes as above: Herb. No. 16 (imazaquin, a.i. in SCEPTER® herbicide; No. 19 (Code No. AC 222293, a.i. in ASSERT® herbicide); No. 6 (imazethapyr, a.i. in PURSUIT® herbicide and No. 18 (imazapyr, a.i. in ARSENAL® herbicide). Test results are shown in Table 40. Table 40
# This example describes the testing of the above antidotes used in Examples 39-41 to safen negative synergy interactions between representative species of the class of herbicidal compounds identified as azolopyrimidine sulfonamides and COUNTER 15G. The same procedure used in the above examples was conducted in this test. In this test, the herbicides were formulated in 17% acetone and 83% water with 0.25% v/v X-77 surfactant.
# In these tests (according to Procedure VII) the safeners in solution with acetone were applied in furrow to the soil, followed by COUNTER 15G granules at 227 g/305 m (8 oz./1000'). Applications were made in alternate rows in two separate 13.7 cm x 27.7 cm pans containing Dupo silt loam. Pans were seeded 1.3 cm deep, placed on benches in a greenhouse and subirrigated. BEACON was formulated in water with 0.25% v/v X-77 surfactant and applied by track sprayer at a rate of 187 L/Ha (20 gal/A). Weed species in this test were giant foxtail, shattercane and velvetleaf. The herbicide was applied five (5) days after PPI initiation and observation of test result (shown in Table 47) made eight (8) days later.
# In Table 47 COUNTER 15G is abbreviated as "C" and the antidotes as "A" in the column headings which indicate the "C + A" ratios used in the tests. Control and COUNTER treatments are average of four (4) replications and COUNTER + Antidote treatments, average of 2 reps. […]
# [7] = Antidote 8.96 + Biocide No. 1 8.96 Kg/Ha PPI, Herb. No. 8 0.07, 5 DAP, before herbicide application
# [8] = Antidote 8.96 + Biocide No. 1 8.96 Kg/Ha PPI, Herb. No. 8 0.07 POE, 13 DAP
# [9] = Antidote 8.96 + Biocide No. 1 8.96 Kg/Ha PPI, Herbicide No. 7 0.28 POE, 13 days after planting
# [10] = Table 14: Herbicide No. 7 (ACCENT) 0.84 Kg/Ha POE + Biocide No. 2 8.96 Kg/Ha PPI + antidote 8.96 Kg/Ha PPI, 13 days after planting, 8 days after herbicide
# [11] = […], 13 days after planting, 8 days after herbicide
# [12] = […], observed 10 days after herbicide application
# [13] = Herb. […], 5 DAP, before herbicide application
# [14] = Antidote 4.48 + Biocide No. 1 8.96 Kg/Ha PPI, Herb. No. 8 0.07, 5 DAP, before herbicide application
# [15] = Antidote 4.48 + Biocide No. 1 8.96 Kg/Ha PPI, Herb. No. 8 0.07 POE, 13 DAP
# [16] = Antidote 4.48 + Biocide No. 1 8.96 Kg/Ha PPI, Herbicide No. 7 0.28 POE, 13 days after planting
# [17] = Table 14: Herbicide No. 7 (ACCENT) 0.84 Kg/Ha POE + Biocide No. 2 8.96 Kg/Ha PPI + antidote 4.48 Kg/Ha PPI, 13 days after planting, 8 days after herbicide
compound,measurement,setting,value
COc1ccc(OC)c(C(=O)CC2OC(=O)c3ccccc32)c1 (stereo not drawn) [compound 77],safening activity,[1],low or nil
same,% Inhibition 5 DAP SHCA,[2]; [7],10%
same,% Inhibition 13 DAP SHCA,[2]; [8],85%
same,% Inhibition SHCA,[2]; [9],70%
same,% Inhibition SHCA,[2]; [10],85%
same,% Inhibition SHCA,[2]; [11],95%
same,% Inhibition SHCA,[2]; [12],60%
same,% Inhibition 5 DAP SHCA,[2]; in vivo,60%
same,% Inhibition 13 DAP SHCA,[2]; in vivo,90%
same,% Inhibition SHCA,[2]; in vivo,85% and 55% and 65% and 45%
same,% Inhibition GIFT,[3],60% and 95% and 85% and 80% and 70%
same,% Inhibition 5 DAP VELE,[4]; [7],0%
same,% Inhibition 13 DAP VELE,[4]; [8],90%
same,% Inhibition VELE,[4]; [9],65%
same,% Inhibition 5 DAP VELE,[4]; [13],0%
same,% Inhibition VELE,[4]; [10],70%
same,% Inhibition VELE,[4]; [11],70%
same,% Inhibition VELE,[4]; [12],80%
same,% Inhibition 5 DAP VELE,[4]; in vivo,20%
same,% Inhibition 13 DAP VELE,[4]; in vivo,95%
same,% Inhibition 5 DAP Corn,[5]; [7],0%
same,% Inhibition 13 DAP Corn,[5]; [8],75%
same,% Inhibition Corn,[5]; [9],25%
same,% Inhibition 5 DAP Corn,[5]; [13],0%
same,% Inhibition Corn,[5]; [10],25%
same,% Inhibition Corn,[5]; [11],15%
same,% Inhibition Corn,[5]; [12],20%
same,% Inhibition 5 DAP Corn,[5]; in vivo,15%
same,% Inhibition 13 DAP Corn,[5]; in vivo,65%
same,activity in reducing corn injury,"[5]; primisulfuron POE + biocides PPI, Tables 8-10",either inactive or weakly active
CC1CN(C(=O)C(Cl)Cl)C(C)(C)O1 (stereo not drawn) [compound 8],% Inhibition Corn,"[6]; C:A Ratio 20, ACCENT 0.56 Kg/Ha POE",10%
same,% Inhibition Corn,"[6]; C:A Ratio 20, BEACON 0.28 Kg/Ha POE",0%
same,% Inhibition Corn,"[6]; C:A Ratio 40, ACCENT 0.56 Kg/Ha POE",15%
same,% Inhibition Corn,"[6]; C:A Ratio 40, BEACON 0.28 Kg/Ha POE",0%
same,% Inhibition Corn,"[6]; C:A Ratio 80, ACCENT 0.56 Kg/Ha POE",20%
same,% Inhibition Corn,"[6]; C:A Ratio 80, BEACON 0.28 Kg/Ha POE",5%
same,% Inhibition Corn,"[6]; C:A Ratio 160, ACCENT 0.56 Kg/Ha POE",40%
same,% Inhibition Corn,"[6]; C:A Ratio 160, BEACON 0.28 Kg/Ha POE",15%
same,% Corn Inhibition C:A Ratios 5,"[6]; Herbicide No. 8 0.28 Kg/Ha POE + COUNTER 15G 227 g/305 m + antidote in furrow, C:A ratio 5",3%
same,% Corn Inhibition C:A Ratios 10,"[6]; Herbicide No. 8 0.28 Kg/Ha POE + COUNTER 15G 227 g/305 m + antidote in furrow, C:A ratio 10",5%
same,% Corn Inhibition C:A Ratios 20,"[6]; Herbicide No. 8 0.28 Kg/Ha POE + COUNTER 15G 227 g/305 m + antidote in furrow, C:A ratio 20",5%
same,% Corn Inhibition C:A Ratios 40,"[6]; Herbicide No. 8 0.28 Kg/Ha POE + COUNTER 15G 227 g/305 m + antidote in furrow, C:A ratio 40",3%
same,% Corn Inhibition C:A Ratios 80,"[6]; Herbicide No. 8 0.28 Kg/Ha POE + COUNTER 15G 227 g/305 m + antidote in furrow, C:A ratio 80",5%
same,% Corn Inhibition C:A Ratios 160,"[6]; Herbicide No. 8 0.28 Kg/Ha POE + COUNTER 15G 227 g/305 m + antidote in furrow, C:A ratio 160",10%
same,% Inhibition 5 DAP SHCA,[2]; [14],0%
same,% Inhibition 13 DAP SHCA,[2]; [15],90%
same,% Inhibition SHCA,[2]; [16],60%
same,% Inhibition SHCA,[2]; [17],85%
same,% Inhibition SHCA,[2]; [11],90%
same,% Inhibition SHCA,[2]; [12],60%
same,% Inhibition 5 DAP SHCA,[2]; in vivo,30%
same,% Inhibition 13 DAP SHCA,[2]; in vivo,80%
same,% Inhibition GIFT,[3],45% and 50% and 85% and 65% and 70% and 90% and 60%
same,% Inhibition 5 DAP VELE,[4]; [14],10%
same,% Inhibition 13 DAP VELE,[4]; [15],85%
same,% Inhibition VELE,[4]; [16],65%
same,% Inhibition 5 DAP VELE,[4]; [13],0%
same,% Inhibition VELE,[4]; [17],70%
same,% Inhibition VELE,[4]; [11],70%
same,% Inhibition VELE,[4]; [12],75%
same,% Inhibition 5 DAP VELE,[4]; in vivo,0%
same,% Inhibition 13 DAP VELE,[4]; in vivo,90%
same,% Inhibition 5 DAP Corn,[5]; [14],20%
same,% Inhibition 13 DAP Corn,[5]; [15],35%
same,% Inhibition Corn,[5]; [16],35%
same,% Inhibition 5 DAP Corn,[5]; [13],0%
same,% Inhibition Corn,[5]; [17],20%
same,% Inhibition Corn,[5]; [11],20%
same,% Inhibition Corn,[5]; [12],45%
same,% Inhibition 5 DAP Corn,[5]; in vivo,20%
same,% Inhibition 13 DAP Corn,[5]; in vivo,30%
same,% Inhibition Corn,[5]; in vivo,30% and 55%

# Source: EP0565593B1, “REDUCING PESTICIDAL INTERACTIONS IN CROPS” (priority 1990, dated 1992)
